For the experiment, the target named is T1, F508del (Homo sapiens, UniProt P13569, DEL508-508).
T1 construct: expressed in transfected cells
T1 sequence (P13569 with tags, fused parts or gaps DEL508-508): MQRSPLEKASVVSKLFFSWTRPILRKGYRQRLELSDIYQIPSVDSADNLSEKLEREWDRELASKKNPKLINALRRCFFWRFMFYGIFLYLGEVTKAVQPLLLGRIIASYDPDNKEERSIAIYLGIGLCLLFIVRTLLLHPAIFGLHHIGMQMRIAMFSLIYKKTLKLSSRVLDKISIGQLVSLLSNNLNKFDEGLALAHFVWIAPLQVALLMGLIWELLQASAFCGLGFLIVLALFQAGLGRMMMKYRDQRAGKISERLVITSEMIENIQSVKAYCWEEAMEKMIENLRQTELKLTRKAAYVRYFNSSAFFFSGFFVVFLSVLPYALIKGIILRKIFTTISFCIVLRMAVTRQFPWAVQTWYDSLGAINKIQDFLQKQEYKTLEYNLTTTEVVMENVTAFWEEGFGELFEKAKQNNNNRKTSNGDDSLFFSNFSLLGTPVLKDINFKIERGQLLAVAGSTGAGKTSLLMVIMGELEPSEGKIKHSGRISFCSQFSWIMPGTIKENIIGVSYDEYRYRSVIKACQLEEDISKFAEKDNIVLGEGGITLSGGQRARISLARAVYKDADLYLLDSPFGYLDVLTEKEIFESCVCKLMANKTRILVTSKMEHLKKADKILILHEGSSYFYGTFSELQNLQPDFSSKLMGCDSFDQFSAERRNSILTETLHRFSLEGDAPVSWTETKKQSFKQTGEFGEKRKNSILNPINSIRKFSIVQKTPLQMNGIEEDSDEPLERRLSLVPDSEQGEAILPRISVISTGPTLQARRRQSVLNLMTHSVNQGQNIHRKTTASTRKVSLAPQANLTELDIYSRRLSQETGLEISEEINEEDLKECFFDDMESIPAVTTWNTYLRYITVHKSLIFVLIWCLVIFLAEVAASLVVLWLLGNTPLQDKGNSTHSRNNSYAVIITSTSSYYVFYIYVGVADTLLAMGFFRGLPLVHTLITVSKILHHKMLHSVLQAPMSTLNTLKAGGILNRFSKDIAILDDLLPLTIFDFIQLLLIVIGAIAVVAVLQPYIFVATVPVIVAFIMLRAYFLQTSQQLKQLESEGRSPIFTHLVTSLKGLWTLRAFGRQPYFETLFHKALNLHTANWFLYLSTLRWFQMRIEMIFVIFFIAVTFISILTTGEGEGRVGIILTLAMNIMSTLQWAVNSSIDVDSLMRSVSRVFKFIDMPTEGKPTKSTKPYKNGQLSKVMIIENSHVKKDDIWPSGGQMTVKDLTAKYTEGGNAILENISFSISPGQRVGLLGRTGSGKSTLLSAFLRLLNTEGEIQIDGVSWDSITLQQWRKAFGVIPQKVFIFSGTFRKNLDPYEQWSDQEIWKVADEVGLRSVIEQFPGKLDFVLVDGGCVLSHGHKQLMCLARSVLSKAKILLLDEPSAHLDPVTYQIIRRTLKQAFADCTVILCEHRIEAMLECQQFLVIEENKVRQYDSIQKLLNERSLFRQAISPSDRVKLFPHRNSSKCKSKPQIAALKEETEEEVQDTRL
In words: Protocol 1: membrane potential optical assay (FLIPR III, voltage sensing dye), identification of potentiator compounds. To be noted: Table 3, compounds of Table 1. The format is cell-based. Put shortly: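 NIH3T3 F508del cells, 27° C × 24 hrs; compound/DMSO pretreat → redistribution dye load → single forskolin addition with Cl⁻ gradient (gluconate-substituted bath, HEPES pH 7.4). FLIPR III membrane-potential fluorescence read.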
Turning to `C[C@@H]1CN(c2nc(C3=COCCC3)ccc2C(=O)NS(=O)(=O)c2cccc(N)n2)C(C)(C)C1` [Compound 1524, N-[(6-amino-2-pyridyl)sulfonyl]-6-(3,4-dihydro-2H-pyran-5-yl)-2-[(4S)-2,2,4-trimethylpyrrolidin-1-yl]pyridine-3-carboxamide], the EC30 result is reported as “+++ (“+++” means <3 uM)”.

In the case of `CC1CN(c2ncccc2C(=O)NS(=O)(=O)c2cccc(OC3(C)CCCC3)n2)C(C)(C)C1` (stereo not drawn) [Compound 1936, N—[[6-(1-methylcyclopentoxy)-2-pyridyl]sulfonyl]-2-(2,2,4-trimethylpyrrolidin-1-yl)pyridine-3-carboxamide], the EC30 result was “+++ (“+++” means <3 uM)”. The entry for `C[C@@H]1CN(c2nc(C(C)(C)C)c(C3=CC4CCC3C4)cc2C(=O)NS(=O)(=O)c2cccc(N)n2)C(C)(C)C1` (stereo partly drawn) [Compound 1577, N-[(6-amino-2-pyridyl)sulfonyl]-5-(3-bicyclo[2.2.1]hept-2-enyl)-6-tert-butyl-2-[(4S)-2,2,4-trimethylpyrrolidin-1-yl]pyridine-3-carboxamide] is “+++ (“+++” means <3 uM)”; for `Cc1cc(C)c(Oc2nc(N3CCCC3C)ccc2C(=O)NS(=O)(=O)c2cccc(N)n2)c(C)c1` (stereo not drawn) [Compound 1553, N-[(6-amino-2-pyridyl)sulfonyl]-6-(2-methylpyrrolidin-1-yl)-2-(2,4,6-trimethylphenoxy)pyridine-3-carboxamide] it is “+++ (“+++” means <3 uM)”. The entry for `Cc1cc(C)c(Oc2nc(C3=CC(C)(C)CCC3=O)ccc2C(=O)NS(=O)(=O)c2cccc(N)n2)c(C)c1` [Compound 1598, N-[(6-amino-2-pyridyl)sulfonyl]-6-(3,3-dimethyl-6-oxo-cyclohexen-1-yl)-2-(2,4,6-trimethylphenoxy)pyridine-3-carboxamide] is “+++ (“+++” means <3 uM)”; for `Cc1cc(C)c(Oc2nc(-c3cc(F)cc(OCC(C)C)c3)ccc2C(=O)NS(=O)(=O)c2cccc(CN)n2)c(C)c1` [Compound 871, N-[[6-(aminomethyl)-2-pyridyl]sulfonyl]-6-(3-fluoro-5-isobutoxy-phenyl)-2-(2,4,6-trimethylphenoxy)pyridine-3-carboxamide] it is “+++ (“+++” means <3 uM)”; for `CC(C)COc1cc(F)cc(-c2ccc(C(=O)NS(=O)(=O)c3cccc(N)n3)c(N(CC3CC3)C(C)C)n2)c1` [Compound 1157, N-[(6-amino-2-pyridyl)sulfonyl]-2-[cyclopropylmethyl(isopropyl)amino]-6-(3-fluoro-5-isobutoxy-phenyl)pyridine-3-carboxamide] it is “+++ (“+++” means <3 uM)”. The entry for `C[C@@H]1CN(c2nc(-c3cc(F)cc(F)c3)ccc2C(=O)NS(=O)(=O)N2CC[C@H](N)C2)C(C)(C)C1` [Compound 1716, N-[(3S)-3-aminopyrrolidin-1-yl]sulfonyl-6-(3,5-difluorophenyl)-2-[(4S)-2,2,4-trimethylpyrrolidin-1-yl]pyridine-3-carboxamide] is “++ (“++” means between 3 uM and 10 uM)”. Consider `C[C@@H]1CN(c2nc(-c3ccc4[nH]ccc4c3)ccc2C(=O)NS(=O)(=O)c2ccc[nH]c2=O)C(C)(C)C1` [Compound 1982, 6-(1H-indol-5-yl)-N-[(2-oxo-1H-pyridin-3-yl)sulfonyl]-2-[(4S)-2,2,4-trimethylpyrrolidin-1-yl]pyridine-3-carboxamide], for which the EC30 result is “++ (“++” means between 3 uM and 10 uM)”. Take `Cc1cc(C)c(Oc2nc(-c3cc(F)ccc3O)ccc2C(=O)NS(=O)(=O)c2cccc(N)n2)c(C)c1` [Compound 1049]: the EC30 entry is on record as “+++ (“+++” means <3 uM)”. The entry for `C=C(C)c1ccc(C(=O)NS(=O)(=O)c2cccc(N)n2)c(Oc2c(C)cc(C)cc2C)n1` [Compound 1211, N-[(6-amino-2-pyridyl)sulfonyl]-6-isopropenyl-2-(2,4,6-trimethylphenoxy)pyridine-3-carboxamide] is “++ (“++” means between 3 uM and 10 uM)”. As for `Cc1cc(C)c(Oc2nc(-c3cnn(C(C)C)c3)ccc2C(=O)NS(=O)(=O)c2cccc(N)n2)c(C)c1` [Compound 808, N-[(6-amino-2-pyridyl)sulfonyl]-6-(1-isopropylpyrazol-4-yl)-2-(2,4,6-trimethylphenoxy)pyridine-3-carboxamide], the entry is “++ (“++” means between 3 uM and 10 uM)”; as for `CCC(Oc1nc(-c2cc(F)cc(OCC(C)C)c2)ccc1C(=O)NS(=O)(=O)c1cccc(N)n1)c1ccccc1` (stereo not drawn) [Compound 1068, N-[(6-amino-2-pyridyl)sulfonyl]-6-(3-fluoro-5-isobutoxy-phenyl)-2-(1-phenylpropoxy)pyridine-3-carboxamide], “+++ (“+++” means <3 uM)”. The entry for `COc1ccccc1Nc1cccc(S(=O)(=O)NC(=O)c2cccnc2N2CC(C)CC2(C)C)n1` (stereo not drawn) [Compound 1959, N—[[6-(2-methoxyanilino)-2-pyridyl]sulfonyl]-2-(2,2,4-trimethylpyrrolidin-1-yl)pyridine-3-carboxamide] is “+++ (“+++” means <3 uM)”; for `CC(C)COc1cc(F)cc(-c2ccc(C(=O)NS(=O)(=O)c3cccc(N)n3)c(OCC3(C)COC3)n2)c1` [Compound 824, N-[(6-amino-2-pyridyl)sulfonyl]-6-(3-fluoro-5-isobutoxy-phenyl)-2-[(3-methyloxetan-3-yl)methoxy]pyridine-3-carboxamide] it is “++ (“++” means between 3 uM and 10 uM)”; for `CC[C@@H]1CN(c2nc(-c3cc(F)cc(OCC(C)C)c3)ccc2C(=O)NS(=O)(=O)c2cccc(N)n2)C(C)(C)C1` [Compound 1612, N-[(6-amino-2-pyridyl)sulfonyl]-2-[(4S)-4-ethyl-2,2-dimethyl-pyrrolidin-1-yl]-6-(3-fluoro-5-isobutoxy-phenyl)pyridine-3-carboxamide] it is “+++ (“+++” means <3 uM)”. For the molecule `[2H]C([2H])([2H])C([2H])(COc1ccn(-c2ccc(C(=O)NS(=O)(=O)c3cccnc3N)c(N3C[C@@H](C)CC3(C)C)n2)n1)C([2H])([2H])[2H]` [Compound 1887, N-[(2-amino-3-pyridyl)sulfonyl]-6-[3-[2,3,3,3-tetradeuterio-2-(trideuteriomethyl)propoxy]pyrazol-1-yl]-2-[(4S)-2,2,4-trimethylpyrrolidin-1-yl]pyridine-3-carboxamide], the EC30 result is “+++ (“+++” means <3 uM)”. The entry for `CC(C)=C(C)c1ccc(C(=O)NS(=O)(=O)c2cccc(N)n2)c(Oc2c(C)cc(C)cc2C)n1` [Compound 1390, N-[(6-amino-2-pyridyl)sulfonyl]-6-(1,2-dimethylprop-1-enyl)-2-(2,4,6-trimethylphenoxy)pyridine-3-carboxamide] is “+++ (“+++” means <3 uM)”. The entry for `CC(C)(C)c1ccc(C(=O)NS(=O)(=O)c2ccc(N)cc2)c(NCc2ccccc2)n1` [Compound 1064, N-(4-aminophenyl)sulfonyl-2-(benzylamino)-6-tert-butyl-pyridine-3-carboxamide] is “+++ (“+++” means <3 uM)”; for `Cc1cc(C)c(Oc2nc3c(cc2C(=O)NS(=O)(=O)c2ccc[nH]c2=O)CCCC3(C)C)c(C)c1` [Compound 899, 8,8-dimethyl-N-[(2-oxo-1H-pyridin-3-yl)sulfonyl]-2-(2,4,6-trimethylphenoxy)-6,7-dihydro-5H-quinoline-3-carboxamide] it is “+++ (“+++” means <3 uM)”. As for `Cc1ccc(-c2ccc(C(=O)NS(=O)(=O)c3cccc(N)n3)c(Oc3ccc(C)cc3C)n2)cc1` [Compound 1015, N-[(6-amino-2-pyridyl)sulfonyl]-2-(2,4-dimethylphenoxy)-6-(p-tolyl)pyridine-3-carboxamide], the entry is “+++ (“+++” means <3 uM)”; as for `Cc1cc(-c2ccc(C(=O)NS(=O)(=O)c3cccc(N)n3)c(N3C[C@@H](C)CC3(C)C)n2)cnc1OCCOCCOCCOC(C)C` [Compound 1787, N-[(6-amino-2-pyridyl)sulfonyl]-6-[6-[2-[2-(2-isopropoxyethoxy)ethoxy]ethoxy]-5-methyl-3-pyridyl]-2-[(4S)-2,2,4-trimethylpyrrolidin-1-yl]pyridine-3-carboxamide], “++ (“++” means between 3 uM and 10 uM)”. Regarding `CC(C)Oc1ccc(-c2ccc(C(=O)NS(=O)(=O)c3cccnc3N)c(N3C[C@H](C)CC3(C)C)n2)cn1` [Compound 1240, N-[(2-amino-3-pyridyl)sulfonyl]-6-(6-isopropoxy-3-pyridyl)-2-[(4R)-2,2,4-trimethylpyrrolidin-1-yl]pyridine-3-carboxamide], the EC30 result was “+++ (“+++” means <3 uM)”. `Cc1cc(C)c(Oc2nc(C3CCCCC3)ccc2C(=O)NS(=O)(=O)c2cccc(N)n2)c(C)c1` [Compound 1131, N-[(6-amino-2-pyridyl)sulfonyl]-6-cyclohexyl-2-(2,4,6-trimethylphenoxy)pyridine-3-carboxamide]: the EC30 result is “+++ (“+++” means <3 uM)”. As for `CC(C)COc1cc(F)cc(-c2ccc(C(=O)NS(=O)(=O)N3CCC(F)(F)C3)c(N3C[C@@H](C)CC3(C)C)n2)c1` [Compound 1956, N-(3,3-difluoropyrrolidin-1-yl)sulfonyl-6-(3-fluoro-5-isobutoxy-phenyl)-2-[(4S)-2,2,4-trimethylpyrrolidin-1-yl]pyridine-3-carboxamide], the entry is “+++ (“+++” means <3 uM)”; as for `CC(C)COc1cc(F)cc(-c2ccc(C(=O)NS(=O)(=O)c3cccc(N)n3)c(N3CCC4(CC3)CC4)n2)c1` [Compound 973, N-[(6-amino-2-pyridyl)sulfonyl]-2-(6-azaspiro[2.5]octan-6-yl)-6-(3-fluoro-5-isobutoxy-phenyl)pyridine-3-carboxamide], “+++ (“+++” means <3 uM)”; as for `CC(C)COc1cc(F)cc(-c2ccc(C(=O)NS(=O)(=O)c3cccc(N)n3)c(OC(C)Cc3ccccc3)n2)c1` (stereo not drawn) [Compound 967, N-[(6-amino-2-pyridyl)sulfonyl]-6-(3-fluoro-5-isobutoxy-phenyl)-2-(1-methyl-2-phenyl-ethoxy)pyridine-3-carboxamide], “+++ (“+++” means <3 uM)”.

The values above are taken from patent publication US10758534B2 (Vertex Pharmaceuticals Incorporated, priority 2014, dated 2020).
